The structures appear in SMILES notation. pIC50: −log10 of the molar value.

The target of this experiment is T1, GST-Met 248 PDE 4a (Homo sapiens, UniProt P27815).
T1 construct: phosphodiesterase IVa (met-248); made in house; host or cells: baculovirus/Sf-9
T1 sequence (P27815 248-886 limits assumed): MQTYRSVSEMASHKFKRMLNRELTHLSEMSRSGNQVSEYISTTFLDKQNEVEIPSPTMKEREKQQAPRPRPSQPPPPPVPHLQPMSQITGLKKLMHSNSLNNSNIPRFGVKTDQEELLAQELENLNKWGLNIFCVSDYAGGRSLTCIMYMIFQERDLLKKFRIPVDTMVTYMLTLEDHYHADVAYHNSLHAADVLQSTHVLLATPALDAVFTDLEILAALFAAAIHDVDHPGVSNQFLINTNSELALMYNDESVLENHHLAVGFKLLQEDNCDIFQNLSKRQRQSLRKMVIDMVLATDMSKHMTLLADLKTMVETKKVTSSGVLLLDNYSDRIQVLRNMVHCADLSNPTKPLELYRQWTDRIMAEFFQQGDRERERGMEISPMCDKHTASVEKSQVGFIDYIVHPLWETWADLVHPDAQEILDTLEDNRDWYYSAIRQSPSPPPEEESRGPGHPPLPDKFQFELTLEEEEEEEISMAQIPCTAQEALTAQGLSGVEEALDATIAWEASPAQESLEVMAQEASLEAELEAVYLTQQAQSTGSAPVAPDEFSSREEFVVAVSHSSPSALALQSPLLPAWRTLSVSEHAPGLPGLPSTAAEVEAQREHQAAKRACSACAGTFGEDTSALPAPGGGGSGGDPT
In words: SPA based PDE activity assay (IC50, purified GST fusion protein of human recombinant phosphodiesterase IVa (met-248), baculovirus/Sf-9). Format: biochemical. Particulars: 100 nM cAMP, 30° C., pH 7.5, 10 min; approximated by non-linear regression of a ten point titration. How it is done:
SPA BASED PDE ACTIVITY ASSAY PROTOCOL Compounds which inhibit the hydrolysis of cAMP to AMP by the type-IV cAMP-specific phosphodiesterases were screened in 96-well plate format as follows: In a 96 well-plate at 30° C. was added the test compound (dissolved in 2 μl DMSO), […] of substrate buffer containing [2,8-^3 H] adenosine 3',5'-cyclic phosphate (cAMP, 100 nM to 50 μM), 10 mM MgCl2, 1 mM EDTA, 50 mM Tris, pH 7.5. The reaction was initiated by the addition of […] of human recombinant PDE-IV (the amount was controlled so that ~10% product was formed in 10 min.). The reaction was stopped after 10 min. by the addition of 1 mg of PDE-SPA beads (Amersham). The product AMP generated was quantified on a Microbeta 96-well plate counter. The signal in the absence of enzyme was defined as the background. 100% activity was defined as the signal detected in the presence of enzyme and DMSO with the background subtracted. Percentage of inhibition was calculated accordingly. IC50 value was approximated with a non-linear regression fit using the standard 4-parameter/multiple binding sites equation from a ten point titration. IC50 values shown in Table 7 were determined with 100 nM cAMP using the purified GST fusion protein of the human recombinant phosphodiesterase IVa (met-248) produced from a baculovirus/Sf-9 expression system.
As a reminder, the pIC50 is −log10 of the IC50, conventionally taken in molar units. Consider `[O-][n+]1ccc(CC(c2ccc(Oc3ccc(OC(F)(F)F)cc3)nc2)c2ccc(OC(F)F)c(OC(F)F)c2)cc1` (racemic) [Example 1, 4-{2-[3,4-Bis(difluoromethoxy)phenyl]-2-{6-[4-(trifluoromethoxy)phenoxy]3-pyridyl}ethyl}pyridine-N-oxide], for which the pIC50 is 8.55.
Turning to `[O-][n+]1ccc(CC(c2ccc(OCc3ccc(F)c(F)c3)nc2)c2ccc(OC(F)F)c(OC(F)F)c2)cc1` (racemic) [Example 16, 4-{2-[3,4-Bis(difluoromethoxy)phenyl]-2-[6-(3,4-difluorobenzyloxy)3-pyridyl]ethyl}pyridine-N-oxide], the pIC50 is 8.84.
`CC(C)(COc1ccc(C(Cc2cc[n+]([O-])cc2)c2ccc(OC(F)F)c(OC(F)F)c2)cn1)c1ccc(F)cc1` (racemic) [Example 23, 4-{2-[3,4-Bis(difluoromethoxy)phenyl]-2-{6-[2-methyl-2-(4-fluorophenyl)propyloxy]3-pyridyl}ethyl}pyridine-N-oxide]: the pIC50 is 8.49.
In the case of `CC(C)(Cc1ccccc1)Oc1ccc(C(Cc2cc[n+]([O-])cc2)c2ccc(OC(F)F)c(OC(F)F)c2)cn1` (racemic) [Example 28, 4-{2-[3,4-Bis(difluoromethoxy)phenyl]-2-[6-(1,1-dimethyl-2-phenylethoxy)3-pyridyl]ethyl}pyridine-N-oxide], the pIC50 is 9.70.

Source of the values: patent US6180650A, “Heterosubstituted pyridine derivatives as PDE 4 inhibitors” (Merck Frosst Canada & Co., priority 2000, dated 2001).
